US9730447B2, “Fungicidal amides” (E I DU PONT DE NEMOURS AND COMPANY, priority 2013, dated 2017)
Marks after values point to notes of the source that are not given here.

How the values were obtained:
Botrytis cinerea = assay: Test A: preventive spray on tomato seedlings, Botrytis cinerea (gray mold), visual disease rating; format: in vivo; conditions: for pest or weed control at 40 µg/mL, 160 g/ha: 96 h
Summary of the method: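 Tomato seedlings sprayed to run-off with 40 ppm or 10 ppm suspensions (160 or 40 g ai/ha) in acetone/water with 250 ppm surfactant. Inoculated with B. cinerea spores next day, held saturated at 20 °C for 48 h, then 27 °C for 2 days. Visual rating, 0–100% disease control relative to controls.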

Septoria tritici = assay: Test C: preventive spray on wheat seedlings, Septoria tritici (wheat leaf blotch), visual disease rating; format: in vivo
Summary of the method: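 Wheat seedlings sprayed to run-off at 40 ppm or 10 ppm (160 or 40 g ai/ha) in acetone/water with surfactant, inoculated with Septoria tritici spores next day. Held 48 h saturated at 24 °C, then 21 days at 20 °C. Visual rating scored as % disease control relative to controls.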

[1] = system: Puccinia recondite f. sp. tritici; assay: Test D: preventive spray on wheat seedlings, Puccinia recondite f. sp. tritici (wheat leaf rust), visual disease rating; format: in vivo
Summary of the method: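 Wheat seedlings sprayed to run-off with 40 ppm (160 g ai/ha) or 10 ppm (40 g ai/ha) suspension in acetone/water with 250 ppm surfactant, inoculated next day with leaf rust spores. After 24 h saturated at 20 °C then 6 days at 20 °C, visual rating of disease control (0–100) relative to controls.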

[2] = system: Stagonospora nodorum (also known as Septoria nodorum); assay: Test B: preventive spray on wheat seedlings, Stagonospora nodorum (wheat glume blotch), visual disease rating; format: in vivo
Summary of the method: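 Compounds in acetone/water (50/50) with 250 ppm Trem 014 surfactant were sprayed to run-off at 40 ppm (160 g ai/ha) or 10 ppm (40 g ai/ha). Seedlings were inoculated with S. nodorum spores the next day, then held 48 h saturated at 20 °C and 6 days in a growth chamber at 20 °C. Visual rating as % disease control vs untreated.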

[3] = system: Erysiphe graminis f. sp. tritici; assay: Test E: preventive spray on wheat seedlings, Erysiphe graminis f. sp. tritici (wheat powdery mildew), visual disease rating; format: in vivo
Summary of the method: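 Wheat seedlings were sprayed to run-off with 40 or 10 ppm suspension (160 or 40 g ai/ha) and dusted with spores the next day. They were then kept 8 days at 20 °C. Disease was rated visually as % control relative to untreated controls (0–100).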

[4] = 100 = 100% disease control, 0 = no control relative to controls, unmarked values
[5] = 100 = 100% disease control, 0 = no control, unmarked values
[6] = values marked with asterisk (*), meaning not given

Compound | pest or weed control at 40 µg/mL, 160 g/ha (Botrytis cinerea; [4]) [%] | melting point [°C] | Test C disease control rating (Septoria tritici; [5]) [%] | Test D disease control rating [1, 5] [%] | Test A disease control rating (Botrytis cinerea; [4]) [%] | Test B disease control rating [2, 5] [%] | Test E disease control rating [3, 5] [%] | Test C disease control rating (Septoria tritici; [6]) | Test D disease control rating [1, 6] | Test A disease control rating (Botrytis cinerea; [6]) | Test B disease control rating [2, 6] | Test E disease control rating [3, 6]
O=C(Nc1ccccc1-c1cnc(-n2ccc(C(F)(F)F)n2)cn1)c1ccccc1C(F)(F)F [Compound 1, 2-(trifluoromethyl)-N-[2-[5-[3-(trifluoromethyl)-1H-pyrazol-1-yl]-2-pyrazinyl]phenyl]benzamide] | 27 | 180 to 182 |  |  |  |  |  |  |  |  |  | 
Cn1cc(C(=O)Nc2ccccc2-c2cnc(-n3ccc(C(F)(F)F)n3)cn2)c(C(F)F)n1 [Compound 2, 3-(difluoromethyl)-1-methyl-N-[2-[5-[3-(trifluoromethyl)-1H-pyrazol-1-yl]-2-pyrazinyl]phenyl]-1H-pyrazole-4-carboxamide] | 15 | 207 to 209 |  |  |  |  |  |  |  |  |  | 
Cn1cc(C(=O)Nc2ccccc2-c2ccc(-n3ccc(C(F)(F)F)n3)nc2)c(C(F)F)n1 [Compound 51, 3-(difluoromethyl)-N-[2-[6-[3-(trifluoromethyl)-1H-pyrazol-1-yl]-3-pyridinyl]phenyl]-1-methyl-1H-pyrazole-4-carboxamide] | 97 | 157 to 159 |  |  |  |  |  |  |  |  |  | 
Cc1cc(-c2ccccc2NC(=O)c2cn(C)nc2C(F)F)cnc1-n1cc(Cl)cn1 [compound 65] |  |  | 100 | 100 | 99 | 97 | 94 |  |  |  |  | 
O=C(Nc1ccccc1-c1ccc(-n2cc(Cl)cn2)nc1)c1ccccc1C(F)(F)F [compound 66] |  |  | 18 | 89 | 32 | 0 | 0 |  |  |  |  | 
O=C(Nc1ccccc1-c1ccc(-n2cc(Cl)cn2)nc1)c1ncccc1Cl [compound 67] |  |  | 62 | 90 | 7 | 0 | 0 |  |  |  |  | 
O=C(Nc1ccccc1-c1cnc(-n2ccc(Cl)n2)c(F)c1)c1ncccc1C(F)(F)F [compound 69] |  |  | 100 | 100 | 99 | 100 | 100 |  |  |  |  | 
O=C(Nc1ccccc1-c1cnc(-n2cc(Cl)cn2)c(F)c1)c1ncccc1C(F)(F)F [compound 70] |  |  | 100 | 100 | 99 | 99 | 100 |  |  |  |  | 
O=C(Nc1ccccc1-c1cnc(-n2ccc(Br)n2)c(F)c1)c1ncccc1C(F)(F)F [compound 71] |  |  | 100 | 100 | 94 | 100 | 100 |  |  |  |  | 
O=C(Nc1ccccc1-c1cnc(-n2ccc(-c3ccccc3)n2)c(F)c1)c1ncccc1C(F)(F)F [compound 72] |  |  | 100 | 97 | 92 | 0 | 91 |  |  |  |  | 
Cn1cc(C(=O)Nc2ccccc2-c2cnc(-n3ccc(Cl)n3)c(F)c2)c(C(F)F)n1 [compound 73] |  |  | 100 | 100 | 96 | 100 | 100 |  |  |  |  | 
Cn1cc(C(=O)Nc2ccccc2-c2cnc(-n3cc(Cl)cn3)c(F)c2)c(C(F)F)n1 [compound 74] |  |  | 100 | 100 | 96 | 0 | 100 |  |  |  |  | 
Cn1cc(C(=O)Nc2ccccc2-c2cnc(-n3ccc(Br)n3)c(F)c2)c(C(F)F)n1 [compound 75] |  |  | 100 | 100 | 99 | 98 | 100 |  |  |  |  | 
Cn1cc(C(=O)Nc2ccccc2-c2cnc(-n3ccc(-c4ccccc4)n3)c(F)c2)c(C(F)F)n1 [compound 76] |  |  | 100 | 100 | 99 | 0 | 99 |  |  |  |  | 
O=C(Nc1ccccc1-c1cnc(-n2ccc(Cl)n2)c(F)c1)c1ccccc1C(F)(F)F [compound 77] |  |  | 100 | 100 | 74 | 0 | 98 |  |  |  |  | 
O=C(Nc1ccccc1-c1cnc(-n2cc(Cl)cn2)c(F)c1)c1ccccc1C(F)(F)F [compound 78] |  |  | 100 | 100 | 28 | 0 | 97 |  |  |  |  | 
O=C(Nc1ccccc1-c1cnc(-n2ccc(Br)n2)c(F)c1)c1ccccc1C(F)(F)F [compound 79] |  |  | 100 | 100 | 25 | 0 | 99 |  |  |  |  | 
O=C(Nc1ccccc1-c1cnc(-n2ccc(-c3ccccc3)n2)c(F)c1)c1ccccc1C(F)(F)F [compound 80] |  |  | 100 | 88 | 0 | 0 | 0 |  |  |  |  | 
O=C(Nc1ccccc1-c1ccc(-n2nc(C(F)(F)F)cc2O)nc1)c1ncccc1C(F)(F)F [compound 82] |  |  |  |  |  |  |  | 48* % | 97* % | 31* % | 97* % | 0* %
N#Cc1cnn(-c2ncc(-c3ccccc3NC(=O)c3ncccc3C(F)(F)F)cc2F)c1 [compound 85] |  |  | 45 | 99 | 70 | 0 | 0 |  |  |  |  | 
N#Cc1ccn(-c2ncc(-c3ccccc3NC(=O)c3ncccc3C(F)(F)F)cc2F)n1 [compound 86] |  |  | 98 | 100 | 89 | 0 | 79 |  |  |  |  | 
Cn1cc(C(=O)Nc2ccccc2-c2ccc(-n3ccc(-c4cccc(F)c4)n3)nc2)c(C(F)F)n1 [compound 87] |  |  | 97 | 100 | 99 | 0 | 64 |  |  |  |  | 
COc1ccc(-c2ccn(-c3ccc(-c4ccccc4NC(=O)c4cn(C)nc4C(F)F)cn3)n2)cc1 [compound 88] |  |  | 51 | 100 | 100 | 0 | 93 |  |  |  |  | 
COc1ccccc1-c1ccn(-c2ccc(-c3ccccc3NC(=O)c3cn(C)nc3C(F)F)cn2)n1 [compound 98] |  |  | 75 | 100 | 67 | 0 | 48 |  |  |  |  | 
Cn1cc(C(=O)Nc2ccccc2-c2ccc(-n3ccc(-c4ccc(F)cc4)n3)nc2)c(C(F)F)n1 [compound 99] |  |  | 90 | 100 | 89 | 0 | 91 |  |  |  |  | 
COc1ccc(-c2ccn(-c3ccc(-c4ccccc4NC(=O)c4cn(C)nc4C(F)F)cn3)n2)c(OC)c1 [compound 100] |  |  | 87 | 100 | 58 | 60 | 69 |  |  |  |  | 
Cn1cc(C(=O)Nc2ccccc2-c2ccc(-n3ccc(-c4ccc(F)cc4F)n3)nc2)c(C(F)F)n1 [compound 101] |  |  | 94 | 100 | 71 | 60 | 92 |  |  |  |  | 
N-[2-[5-fluoro-6-[3-(trifluoromethyl)-1H-pyrazol-1-yl]-3-pyridinyl]phenyl]-3-(trifluoromethyl)-2-pyridinecarboxamide [Compound 50] |  |  | 100 | 100 | 99 | 100 | 100 |  |  |  |  | 
